Publication PMC13128454, “Mutant p53 protein accumulation is selectively targetable by proximity-inducing drugs” (Nature Chemical Biology, 2025)
Several values for one entry are separate records, joined by “and”; a condition that tells them apart may be missing. Equal values may be shown once.

Key:
Format in all cases: cell-based
[1] = test system: Halo–p53-Y220C ΔTAD–mCherry 293T cells; test: caspase 3/7 glo; conditions: for mean_norm (caspase 3/7 glo): Cell_Line Y220C, normalized to Concentration 0; for raw caspase 3/7 glo signal, single replicate: Y220C
Procedure: (§1) Cells were plated in 384-well plates (typically 1,500 cells per well) with varying concentrations of compounds with a total volume of 50 μl per well. After 1 day, caspase 3/7 glo reagent (Promega) was added following the manufacturer’s protocol and read out using an EnVision 2105 multimode plate reader.

parental 293T cells = test: caspase 3/7 glo; conditions: for mean_norm (caspase 3/7 glo): Cell_Line WT, normalized to Concentration 0; for raw caspase 3/7 glo signal, single replicate: WT
Procedure: as §1

[2] = test system: Halo–p53-Y220C ΔTAD–mCherry 293T cells; test: annexin–PI staining; conditions: for P3_avg (P3 = early apoptotic) / P5_avg (P5 = late apoptotic): Cell_Line Y220C, proportion of cells; for avgprop_P3: average proportion AnnexinPos PIneg; for avgprop_P4: average proportion PIpos AnnexinNeg; for avgprop_P5: average proportion PIpos Annexinpos; for avgprop_P2: average proportion viable
Procedure: Cells were plated in six-well plates and treated with varying concentrations of compounds for 1 day. Cells were stained with annexin V–AF488 and PI following the manufacturer’s instructions (Thermo Fisher, V13241) and analyzed by flow cytometry (Beckman CytoFLEX LX), using untreated cells to establish gates.

[3] = Y220C, Concentration 0.75, event count, single replicate

## CC[C@@H]1C(=O)N(C)c2cnc(Nc3ccc(C(=O)NC4CCN(C)CC4)cc3OC)nc2N1C1CCCC1 [BI2536]
[1]; Concentration 0.0195312
  mean_norm (caspase 3/7 glo): 0.7877
[1]; Concentration 0.0390625
  mean_norm (caspase 3/7 glo): 0.7982
[1]; Concentration 0.078125
  mean_norm (caspase 3/7 glo): 0.8973
[1]; Concentration 0.15625
  mean_norm (caspase 3/7 glo): 0.6969
[1]; Concentration 0.3125
  mean_norm (caspase 3/7 glo): 0.7125
[1]; Concentration 0.625
  mean_norm (caspase 3/7 glo): 0.7879
[1]; Concentration 1.25
  mean_norm (caspase 3/7 glo): 1.419
[1]; Concentration 2.5
  mean_norm (caspase 3/7 glo): 1.997
[1]; Concentration 5
  mean_norm (caspase 3/7 glo): 1.954
[1]; Concentration 10
  mean_norm (caspase 3/7 glo): 2.025
[1]; Concentration 19.5312
  raw caspase 3/7 glo signal, single replicate: 115256 and 127200 and 115855 and 132591
[1]; Concentration 39.0625
  raw caspase 3/7 glo signal, single replicate: 137775 and 105993 and 131607 and 122061
[1]; Concentration 78.125
  raw caspase 3/7 glo signal, single replicate: 135249 and 137668 and 143467 and 142866
[1]; Concentration 156.25
  raw caspase 3/7 glo signal, single replicate: 101297 and 110278 and 108541 and 114189
[1]; Concentration 312.5
  raw caspase 3/7 glo signal, single replicate: 98096 and 116170 and 98914 and 130859
[1]; Concentration 625
  raw caspase 3/7 glo signal, single replicate: 117128 and 121353 and 128759 and 123804
[1]; Concentration 1250
  raw caspase 3/7 glo signal, single replicate: 212391 and 226804 and 198553 and 246616
[1]; Concentration 2500
  raw caspase 3/7 glo signal, single replicate: 314760 and 286983 and 322612 and 319985
[1]; Concentration 5000
  raw caspase 3/7 glo signal, single replicate: 280409 and 304325 and 302507 and 330408
[1]; Concentration 10000
  raw caspase 3/7 glo signal, single replicate: 320499 and 297797 and 322913 and 320880
Parental 293T cells; Concentration 0.0195312
  mean_norm (caspase 3/7 glo): 0.9498
Parental 293T cells; Concentration 0.0390625
  mean_norm (caspase 3/7 glo): 0.9355
Parental 293T cells; Concentration 0.078125
  mean_norm (caspase 3/7 glo): 1.009
Parental 293T cells; Concentration 0.15625
  mean_norm (caspase 3/7 glo): 0.7951
Parental 293T cells; Concentration 0.3125
  mean_norm (caspase 3/7 glo): 0.7961
Parental 293T cells; Concentration 0.625
  mean_norm (caspase 3/7 glo): 0.9439
Parental 293T cells; Concentration 1.25
  mean_norm (caspase 3/7 glo): 1.163
Parental 293T cells; Concentration 2.5
  mean_norm (caspase 3/7 glo): 1.635
Parental 293T cells; Concentration 5
  mean_norm (caspase 3/7 glo): 1.96
Parental 293T cells; Concentration 10
  mean_norm (caspase 3/7 glo): 2.136
Parental 293T cells; Concentration 19.5312
  raw caspase 3/7 glo signal, single replicate: 101820 and 113248 and 111453 and 123771
Parental 293T cells; Concentration 39.0625
  raw caspase 3/7 glo signal, single replicate: 126417 and 91473 and 129554 and 96056
Parental 293T cells; Concentration 78.125
  raw caspase 3/7 glo signal, single replicate: 125458 and 106940 and 132813 and 113259
Parental 293T cells; Concentration 156.25
  raw caspase 3/7 glo signal, single replicate: 92236 and 94370 and 93114 and 97215
Parental 293T cells; Concentration 312.5
  raw caspase 3/7 glo signal, single replicate: 90006 and 94305 and 93528 and 99564
Parental 293T cells; Concentration 625
  raw caspase 3/7 glo signal, single replicate: 118546 and 104034 and 117323 and 107564
Parental 293T cells; Concentration 1250
  raw caspase 3/7 glo signal, single replicate: 131108 and 131356 and 152167 and 136802
Parental 293T cells; Concentration 2500
  raw caspase 3/7 glo signal, single replicate: 182654 and 187485 and 215491 and 189535
Parental 293T cells; Concentration 5000
  raw caspase 3/7 glo signal, single replicate: 226831 and 221170 and 240802 and 240601
Parental 293T cells; Concentration 10000
  raw caspase 3/7 glo signal, single replicate: 259590 and 240701 and 269097 and 243095
[2]; Concentration 0.75
  P3_avg (P3 = early apoptotic): 0.03538
  P5_avg (P5 = late apoptotic): 0.001761
[2]; Concentration 1.5
  P3_avg (P3 = early apoptotic): 0.08725
  P5_avg (P5 = late apoptotic): 0.03439
[2]; Y220C, Concentration 0.75
  avgprop_P3: 0.03538
  avgprop_P4: 0.005431
  avgprop_P5: 0.001761
  avgprop_P2: 0.9574
[2]; [3]
  P2_viable: 2186 and 2152 and 2185
  P3_AnnexinPos_PIneg: 74 and 98 and 69
  P4_PIpos_AnnexinNeg: 7 and 17 and 13
  P5_PIpos_Annexinpos: 5 and 3 and 4
[2]; Y220C, Concentration 0.75, proportion AnnexinPos PIneg, single replicate
  prop_P3: 0.03257 and 0.04317 and 0.03038
[2]; Y220C, Concentration 0.75, proportion PIpos AnnexinNeg, single replicate
  prop_P4: 0.003081 and 0.007489 and 0.005724
[2]; Y220C, Concentration 0.75, proportion PIpos Annexinpos, single replicate
  prop_P5: 0.002201 and 0.001322 and 0.001761
[2]; Y220C, Concentration 0.75, proportion viable, single replicate
  prop_P2: 0.9621 (2×) and 0.948
[2]; Y220C, Concentration 1.5
  avgprop_P3: 0.08725
  avgprop_P4: 0.1027
  avgprop_P5: 0.03439
  avgprop_P2: 0.7757
[2]; Y220C, Concentration 1.5, event count, single replicate
  P2_viable: 1282 and 1336 and 510
